Tests used:
[1] = tested on: CHO cells expressing targeted sFv; experiment: Site-specific fluorescent labeling of living CHO cells expressing targeted sFv; format: cell-based; conditions: addition of 1 μM
Protocol: CHO cells (ATCC CRL 9618) were transfected with plasmids encoding targeted sFv using lipofectamine (Gibco) as is known in the art.
Cells were labeled at two days after transfection, with phOx-fluorophore conjugates by incubation with low concentrations (<100 nM) of the conjugates. […] Images were recorded at room temperature on a K2 BIO microscope (Technical Instruments) equipped with a 60× PlanApo objective (Nikon, N. A. 1.4), coaxial-confocal attachment, and cooled CCD camera (Photometrics). Dual-excitation ratio images of fluorescein were acquired using 440 and 490 nm excitation filters and a 520 nm long pass emission filter (Chroma). Continuous recordings of the fluorescence time course were obtained on a Nikon Diaphot epifluorescence microscope equipped with a 100× PlanApo objective (Nikon, N. A. 1.4), a photomultiplier using a 530 nm bandpass emission filter and an optical filter changer (Model 10-C, Sutter Instrument Co.) containing 440 and 490 nm excitation filters. Cuvette fluorescence measurements were conducted on an SLM 8000c fluorometer (SLM Aminco). Spectra were recorded with 4 nm slit widths; time courses were acquired with 495 nm excitation and a 510 mm longpass emission filter.
The various sFv targeting constructs and phOx conjugates were studied in CHO cells. […] For quantitative measurement of organelle pH, the free dye was washed out of the bathing solutions.

vacuolar H+ pump = experiment: Golgi lumenal pH time course with Golgi-targeted phOx-fluorescein; format: cell-based; conditions: 100 nM, Golgi pH initially ~6.3, individual cells
Protocol: Cells were labeled at two days after transfection, with phOx-fluorophore conjugates by incubation with low concentrations (<100 nM) of the conjugates. […] Images were recorded at room temperature on a K2 BIO microscope (Technical Instruments) equipped with a 60× PlanApo objective (Nikon, N. A. 1.4), coaxial-confocal attachment, and cooled CCD camera (Photometrics). Dual-excitation ratio images of fluorescein were acquired using 440 and 490 nm excitation filters and a 520 nm long pass emission filter (Chroma). Continuous recordings of the fluorescence time course were obtained on a Nikon Diaphot epifluorescence microscope equipped with a 100× PlanApo objective (Nikon, N. A. 1.4), a photomultiplier using a 530 nm bandpass emission filter and an optical filter changer (Model 10-C, Sutter Instrument Co.) containing 440 and 490 nm excitation filters. Cuvette fluorescence measurements were conducted on an SLM 8000c fluorometer (SLM Aminco). Spectra were recorded with 4 nm slit widths; time courses were acquired with 495 nm excitation and a […] longpass emission filter.
Organelle-specific sFv targeting was applied to measure Golgi pH using phOx-fluorescein as the probe. […] The dependence of the fluorescence ratio on pH was measured for Golgi and plasma membrane-expressed sFv (FIG. 4A). […]

Row | Compound | effect on phOx-Bodipy staining of Golgi (competition) [1] | change of Golgi pH after addition (vacuolar H+ pump)
1 | O=C1OC(c2ccccc2)=NC1=CNCCO [phOx-ethanolamine] | reversed | 
2 | CO/C1=C\C(C)=C\[C@@H](C)[C@@H](O)[C@@H](C)C/C(C)=C/C=C/[C@H](OC)[C@@H]([C@@H](C)[C@@H](O)[C@H](C)[C@@]2(O)C[C@@H](O)[C@H](C)[C@@H](C(C)C)O2)OC1=O [bafilomycin A1] |  | promptly alkalinized
